Patent US7425533B2, “Modified hirudin proteins and T-cell epitopes in hirudin” (Merck Patent GmbH, priority 2003, dated 2008)
Changes are numbered by the printed parent chain. Numbers in names are those of the source. Where “and” joins values, the source holds several entries; their conditions need not be identical. Equal entries are not always repeated.

Legend:
[1] = tested on: human PBMCs; assay: T-cell epitope mapping, PBMC proliferation (tritiated thymidine) with 15 mer hirudin peptides; assay type: cell-based; conditions: for donor response (SI>2): initial analysis, 25 donor samples, peptides at 1 μM and 10 μM, 7 days
[2] = tested on: PBMC from healthy donors; assay: time-course T-cell assay, PBMC proliferation with WT and variant peptides; assay type: cell-based, human; conditions: cohorts of 20 healthy donors, SI>2 at any time point, days 6, 7, 8 and 9
Text: “Time course assay” refers to a biological assay such as a proliferation assay in which determinations of activity are made sequentially over a period of time. In the present context, a “time course T-cell assay”, refers to the determination of T-cell proliferation in response to a test immunogen (peptide) at multiple times following exposure to the test immunogen. The terms “time course T-cell assay” and “time course immunogenicity assay” may be used interchangeably herein.
Bulk cultures of 2-4×10^6 PBMC/well were established from 20 healthy donor samples in 24 well plates. Cells were incubated for 6 to 9 days with WT and variant peptides spanning the immunogenic regions (see Table 4). T cell proliferation was assessed by tritiated thymidine incorporation on days 6, 7, 8 and 9. Proliferation was assessed at each time point, by gently resuspending the bulk cultures and removing samples of PBMC, that were then incubated in triplicate wells of U-bottomed 96 well plate with 1 μCi/well tritiated thymidine for 18 hours as described above.
The time course assay was used to test variant peptides containing substitutions over WT. Substitutions were made at key locations where there was expectation that the substitution would prevent binding to MHC class II and therefore, subsequent T cell proliferation in the assay. FIG. 2 and FIG. 3 respectively show exemplary donor responses over the time course and overall response frequencies.

[3] = target: serine protease thrombin (Homo sapiens, UniProt P00734); conditions: native hirudin; cited from earlier work
[4] = cited from earlier work
[5] = target: T1, thrombin (Homo sapiens, UniProt P00734); assay: chromogenic thrombin inhibition assay; assay type: biochemical; conditions: chromogenic substrate H-D-Phe-Pep-Arg-pNA, 37° C., relative to WT hirudin
T1 construct: purchased Diagnostica Stago (via Axis Shield Diagnostics, Dundee, UK) Stachrom HCII assay kit (catalogue number not given)
Text: A “thrombin inhibition assay” according to the present context means an in vitro assay able to provide a reading of the functional capability of the test protein. In the present instance this means the ability of a given hirudin mutein to evoke a specific measurable chromogenic response. Particularly suitable assays are exemplified herein using thrombin and the chromogenic thrombin substrate H-D-Phe-Pep-Arg-pNA. Other assay formats can be contemplated to also provide quantitative estimations of specific activity of the test molecules and permit ED50 determinations. […]
The functional activity of the modified hirudin proteins was assessed using a chromogenic thrombin inhibition assay. […] The chromogenic substrate H-D-Phe-Pep-Arg-pNA is then added and any residual free thrombin present will cleave the substrate to form H-D-Phe-Pep-Arg-OH and pNA that can then be detected spectrophotometrically at 405 nm […]
The plate was warmed to 37° C. for 5 minutes followed by addition of 40 μl thrombin and incubated for 120 seconds at 37° C. with shaking. […] 40 μl acetic acid was added to quench reaction and the plate was read spectrophotometrically at 405 nm. Absorbance at 405 nm vs hirudin concentration was plotted using Sigma plot (Sigma Poole, UK) and IC50 values calculated by fitting a sigmoidal equation. […]

Molecule: 10: 15 mer hirudin peptide GNKCILGSDGEKNQC, SEQ ID NO: 96 (hirudo medicinalis) [Peptide 10]
- donor response (SI>2) [1]: 8%

Molecule: 15: 15 mer hirudin peptide VTGEGTPKPESHNDG, SEQ ID NO: 101 (hirudo medicinalis) [Peptide 15]
- final response rate ([1]; across a total of 55 donor samples): 4%
- donor response (SI>2) [1]: 8%

Molecule: CAAGSDGEKNQCVTG (modified hirudin sequence)
- % donor response in time course [2]: 5%

Molecule: CEKGSDGEKNQCVTG (modified hirudin sequence)
- % donor response in time course [2]: 10%

Molecule: CILGSDGEKNQCVTG (hirudo medicinalis) [reference compound]
- % donor response in time course [2]: 25%

Molecule: CRHGSDGEKNQCVTG (modified hirudin sequence)
- % donor response in time course [2]: 5%

Molecule: Hirudin
- Ki [3]: 10^−11 to 10^−14 M

Molecule: [Leu^1, Thr^2]-63-desulphohirudin [lepirudin]
- fatal outcomes ([4]; among the severe anaphylaxis cases, previous treatment course 1 to 12 weeks earlier): 4
- patients judged to have had severe anaphylaxis ([4]; between 1994 and 2002, within minutes of intravenous administration): 9 patients

B1: M 25: hirudin mutein I29R L30R, SEQ ID NO: 28 (protein)
chain: VVYTDCTESGQNLCLCEGSVVCGQGNKCRRGSDGEKNQCVTGEGTPKPESHNDGDFEEIPEEYLQ
modifications: ends and bridges not checked
- Relative Activity (Ratio of variant IC50/WT IC50) [5]: 0.70

B2: M 19: hirudin mutein I29E L30K, SEQ ID NO: 22 (protein)
chain: B1 chain with R29E, R30K
modifications: ends and bridges not checked
- Relative Activity (Ratio of variant IC50/WT IC50) [5]: 1.0 and 0.55
